The results in this text go back to patent publication US8859625B2, “Methods to prepare penta-1,4-dien-3-ones and substituted cyclohexanones and derivatives with antitumoral and antiparasitic properties, the compounds and their uses” (Universidade Bandeirante de Sao Paulo-Academia, Paulista …, priority 2006, dated 2014).

Series [1] deals with B16F10 melanoma. Briefly: Histological analysis of mice bearing B16F10 dorsal melanoma. The series is classed as in vivo, C57BL/6J mice. The following applies: diluted in Miglyol 810, 1.15 μg/kg intraperitoneal. From the text: Animals are sacrificed by cervical displacement and the organ fragments were collected from the areas next to the tumoral region, stored in vials containing 10% formaldehyde, and fixed to be submitted to the routine histological processing (PARDI, P C; SIMÕES, M J, BINIVIGNAT, G. O—Ultrastructural study of the remodeling of the stroma of persistent-estrous rats—Rev. Chil. Cienc. Méd. Biol 3(2):61-65, 1993).
Melanoma B16F10 cell line are implanted at 5×10^4 cells per animal, the ideal dose to obtain the expected results and already proclaimed for this chosen type of animal.
All animals are treated after Day 14 of tumor implant and, as a result, the sequence of necropsis initiates at Day 15.
To visualize the results of HB-1 administration, animals are allocated into the following groups:
2—HB-1 group, treated with HB-1 diluted in Miglyol 810®, kept under ad libitum feed and water.
In both cases, the standard administered dose is of 1.15 μg/kg, via intraperitoneal as the elicited administration route.
Animals are sacrificed by cervical displacement and necropsis is performed with the material immediately collected and transferred to vials containing 10% formaldehyde and, after a 1 to 2 day period, submitted to a routine histological technique Hystology Technique Manual (Manual De Técnicas Para Histologia—Normal E Patológica: Castro De Tolosa, Rodrigues, Behmer E Freitas Neto, Editora Manole 2003).
After the fixation procedure to the thin plate, the hematoxylin/eosin staining method—Hystology Technique Manual (Manual (Manual De Técnicas Para Histologia—Normal E Patológica: Castro De Tolosa, Rodrigues, Behmer E Freitas Neto, Editora Manole 2003). is applied as it presents good results for tissue and cell morphologic evaluation, mainly to the components in each block.
After staining, the thin plates are mounted, then analysed by a ZEISS microscopy with a AXIOCAM-MRC3 trade mark digital camera, and the resulting pictures processed by a AXIOVISON REL 4.2 (Carl Zeiss Inc.) software, registered by a computer.

In series [2] the test system is B16F10 melanoma. Put plainly: B16F10 melanoma tumors implanted in C57BL/6J mice, intraperitoneal treatment; tumor area and volume. To be noted: diluted in Miglyol 810, intraperitoneal 1.15 μg/kg daily, to Day 14; tumor volume and area. Format: in vivo. The method, then:
After the Day 4 of tumor cells implant (2×10^5 tumoral cells/mL), the animals were splitted in two groups: the test group, treated with HB-1 compound diluted in Miglyol 810® and the control group, which received only the diluent (Miglyol 810®) in the same volume as the test group. The animals were daily treated by intraperitoneal route. Concomitantly, measurements of animal weight and tumor size (two measures—length×width) were performed and tumor aspect registered by photographies.
After the Day 14, the animals were sacrificed by cervical displacement, tumors were removed, and necropsy performed to remove all internal organs and macroscopic lesions for hystopathologic analysis.
Tumoral parameters were obtained by calculation of tumor average area (A) and volume (V), through the following formulas A=πR^2 and V=4/3πR^3, where (R=average tumor radius). […]
After tumoral cell implant, the animals were treated with the HB-2 compound diluted in Miglyol 810® and with (HB2+HB-1) conjugate whereas the control group received the same volume of diluent and by the same administration route (intraperitoneal—100 μl). Daily, the animals received the compounds (100 μl) and the control group received Miglyol 810®, the animals were weighted, and the tumors were measured (length×width) and photographed. […]

The subject of series [3] is Leishmania (isolate L.C.L.) promastigotes. Put plainly: Promastigote viability by MTT, L.C.L. isolate, Warren medium. The series is classed as cell-based. To be noted: for O.D. (optical density at 595/690 nm, average of duplicates): Warren medium. The method, then:
Viability and/or cellular proliferative assays of promastigote and amastigote forms are also performed by the MTT (diphenyl tetrazolium 3-[4,5-dimethylthiazol-2il]2,5-bromide) method as described by Moreira, et al. (Moreira, M. E. C., Del Portillo, H. A., Milder, R. V., Balanco, J. M. F. and Barcinski, M. A. Heat shock induction of apoptosis in promastigotes of the unicellular organism Leishmania (Leishmania) amazonensis, J. Cell Physiol 167, 305-313, 1996), modified.
After incubation of parasitic forms with the compounds, as described above, for predetermined periods of time for each experiment (24, 48, 72 hours, etc.), an 1.0 mL aliquot of cellular suspension is collected from each culture tube or vial and transferred to microcentrifuge tubes, where they are centrifuged at 14.000 rpm for 3 minutes, the culture medium is aspirated and discharged. To the sedimented cells are add 200 μL of PBS. After that, the volume in PBS of the cellular suspensions is splitted into two wells (duplicates of 100 μL each) of a 96 well culture plate. To each duplicate, […] of MTT (5 mg/mL stock solution, […]) are added. After 1 h or 1 h 30 min, at a temperature of 22° C. (promastigotes) or 34° C. (amastigotes), 100 μL of 10% SDS are added to each well to interrupt the reaction, to lyse the cells and to dissolve the formazan crystals, resulting in an homogeneous blue solution appropriate to the absorbance measure by a spectrophotometer for culture microplates (3550 BIORAD model, Richmond, Calif.), at 595 nm as test wavelength and 690 nm as the reference wavelength.
The optical density (O.D.) values correspond to MTT enzymatic reduction by the metabolic active cells. Consequently, the O.D. is directly proportional to the number of viable cells of the cellular suspension. The progressive increase of O.D. indicates cellular proliferation. Results are expressed as arithmetic average of the optical density duplicates.
This experiment is developed in the Warren medium using an initial inoculum of 2.0×10^6/mL of the medium for the isolates. Cultures were at the day 7^h of passage and at the final exponential phase growth (day 6 of incubation). The results of viability determination for the Leishmania (isolate L.C.L.) promastigotes, incubated in Warren medium and in the presence of HB-1, are shown in the next Table and in FIG. 36. The culture final volume is of 5 mL and the MTT reactions are processed in 1 h and 30 minutes of incubation, beginning with 1.0 mL of culture.

“Also recorded” adds a separate entry of the source.

`COc1cc(C=CC(=O)C=Cc2ccc(O)c(OC)c2)ccc1O` [HB-1, 1,5-Bis-(4-hydroxy-3-methoxy-phenyl)-penta-1,4-dien-3-one]: the “leukocytic infiltrate in dorsal tumor” value in the series on B16F10 melanoma [1] (14 day treatment) is “presence of a leukocytic infiltrate in the peri- and intratumoral portions”. Moreover, the lung parenchyma alterations result in the series on B16F10 melanoma [1] (compared to control group) was “No alterations of thickness or bronchium epithelium rupture”. Besides, the metastatic lesions entry with B16F10 melanoma [1] (compared to control group) is “no metastatic lesions were found; also recorded: presence of metastatic masses or nodules was not observed”. The “percentage of inhibitory treatment for B16F10 melanoma” value in the series on B16F10 melanoma [2] is “higher than 98%”. Further, the effect in words result in series [3] (HB-1 5 μg/mL) was “partial inhibition of proliferation”; in series [3] (HB-1 10 μg/mL), “leishmaniostatic effect”; in series [3] (HB-1 20 μg/mL), “leishmanicide”. The “O.D. (optical density at 595/690 nm, average of duplicates)” value in series [3] (HB-1 5 μg/mL, 24 hours) is on record as 0.489; in series [3] (HB-1 5 μg/mL, 48 hours) it was 0.452; in series [3] (HB-1 5 μg/mL, 72 hours), 1.346; in series [3] (HB-1 5 μg/mL, 96 hours), 1.834; in series [3] (HB-1 10 μg/mL, 24 hours), 0.177; in series [3] (HB-1 10 μg/mL, 48 hours) it was 0.153. The “O.D. (optical density at 595/690 nm, average of duplicates)” value amounted to 0.176 in series [3] (HB-1 10 μg/mL, 72 hours); 0.187 in series [3] (HB-1 10 μg/mL, 96 hours); 0.056 in series [3] (HB-1 20 μg/mL, 24 hours); 0.014 in series [3] (HB-1 20 μg/mL, 48 hours); 0.012 in series [3] (HB-1 20 μg/mL, 72 hours); 0.012 in series [3] (HB-1 20 μg/mL, 96 hours).
